Literature values, collected in patent US20100008998A1, “SUBMICRON NANOPARTICLE OF POORLY WATER SOLUBLE CAMPTOTHECIN DERIVATIVES AND PROCESS FOR PREPARATION THEREOF” (SAMYANG CORPORATION, priority 2006, published 2010).
Where two headings read alike, the source gives them in different places.

Tests used:
[1] = in the human body
topoisomerase I = biological target: T1, topoisomerase I (Homo sapiens, UniProt P11387)
T1 sequence (P11387 1-765): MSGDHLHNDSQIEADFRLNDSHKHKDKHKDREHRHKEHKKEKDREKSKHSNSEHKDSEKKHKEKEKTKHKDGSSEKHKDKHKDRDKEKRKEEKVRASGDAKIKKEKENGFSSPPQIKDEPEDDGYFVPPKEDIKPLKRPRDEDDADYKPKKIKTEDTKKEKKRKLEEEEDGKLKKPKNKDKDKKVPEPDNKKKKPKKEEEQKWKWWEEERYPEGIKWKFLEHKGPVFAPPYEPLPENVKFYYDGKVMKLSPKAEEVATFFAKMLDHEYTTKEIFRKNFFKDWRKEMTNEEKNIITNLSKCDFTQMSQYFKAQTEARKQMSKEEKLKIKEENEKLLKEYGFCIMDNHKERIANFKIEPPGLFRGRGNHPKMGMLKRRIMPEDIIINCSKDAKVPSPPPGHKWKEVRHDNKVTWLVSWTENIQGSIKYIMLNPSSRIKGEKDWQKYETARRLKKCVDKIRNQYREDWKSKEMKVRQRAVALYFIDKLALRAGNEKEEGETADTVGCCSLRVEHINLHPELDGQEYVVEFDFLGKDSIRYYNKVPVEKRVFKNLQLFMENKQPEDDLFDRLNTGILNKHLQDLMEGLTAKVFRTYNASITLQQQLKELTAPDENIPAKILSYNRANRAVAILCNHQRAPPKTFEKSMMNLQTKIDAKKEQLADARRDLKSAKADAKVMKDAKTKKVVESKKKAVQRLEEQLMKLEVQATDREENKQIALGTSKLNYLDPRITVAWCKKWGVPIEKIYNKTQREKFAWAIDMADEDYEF

[2] = not given; remark: listed apart in the source

Compound | conversion rate of CPT-11 into the active SN-38 [1] | better in in vitro cytotoxicity compared to CPT-11 | better in suppressing the activity of topoisomerase I compared to CPT-11 (topoisomerase I) | water solubility [2] | water solubility ([2]; active lactone form) | can be dissolved in water in the amounts of ([2]; carboxy anion form)
CCc1c2c(nc3ccc(OC(=O)N4CCC(N5CCCCC5)CC4)cc13)-c1cc3c(c(=O)n1C2)COC(=O)[C@]3(O)CC [CPT-11] | ≤ 10% | – | – | – | – | –
CCc1c2c(nc3ccc(O)cc13)-c1cc3c(c(=O)n1C2)COC(=O)[C@]3(O)CC [SN-38, 7-Ethyl-10-hydroxycamptothecin] | – | ≥ 2,000 times | ≥ 1,000 times | ≤ 10 µg/mL | ≤ 10 µg/mL | ≥ 4 mg/mL
